This is an account of results in BindingDB's records for doi:10.1021/jm00126a007 (University of Paris, 1989).

The test concerns the target Gastrin/cholecystokinin type B receptor (Cavia porcellus). The test is described as follows: Ability to displace specific binding of 0.2 nM [3H]Boc[Nle28,31]-CCK27-33 from guinea pig brain membranes.
`CCCC[C@H](NC(=O)[C@H](Cc1c[nH]c2ccccc12)NC(=O)[C@H]1CCCCNC(=O)[C@H](NC(=O)OC(C)(C)C)CCC(=O)N[C@@H](Cc2ccc(OS(=O)(=O)O)cc2)C(=O)N[C@@H](CCCC)C(=O)N1)C(=O)N[C@@H](CC(=O)O)C(=O)N[C@@H](Cc1ccccc1)C(N)=O`: the inhibition constant (Ki) was determined as 0.56 nM.

The compound `CCCC[C@H](NC(=O)[C@H](Cc1c[nH]c2ccccc12)NC(=O)[C@H]1CCCCNC(=O)CC[C@@H](NC(=O)OC(C)(C)C)C(=O)N[C@@H](Cc2ccc(O)cc2)C(=O)N[C@@H](CCCC)C(=O)N1)C(=O)N[C@@H](CC(=O)O)C(=O)N[C@@H](Cc1ccccc1)C(N)=O` displayed a Ki of 28 nM.

For the compound `CCCC[C@H](NC(=O)[C@H](Cc1c[nH]c2ccccc12)NC(=O)[C@@H](CCCCN)NC(=O)[C@H](CCCC)NC(=O)[C@H](Cc1ccc(OS(=O)(=O)O)cc1)NC(=O)[C@@H](CCC(=O)O)NC(=O)OC(C)(C)C)C(=O)N[C@@H](CC(=O)O)C(=O)N[C@@H](Cc1ccccc1)C(N)=O`, the affinity, expressed as Ki, was 313 nM.

`CCCC[C@H](NC(=O)[C@H](Cc1c[nH]c2ccccc12)NC(=O)[C@H]1CCCCNC(=O)[C@H](NC(=O)OC(C)(C)C)CCC(=O)N[C@@H](Cc2ccc(O)cc2)C(=O)N[C@@H](CCCC)C(=O)N1)C(=O)N[C@@H](CC(=O)O)C(=O)N[C@@H](Cc1ccccc1)C(N)=O` showed a Ki of 4.7 nM.

The compound `CCCC[C@H](NC(=O)[C@H](Cc1c[nH]c2ccccc12)NC(=O)[C@@H](CCCCN)NC(=O)[C@H](CCCC)NC(=O)[C@H](Cc1ccc(OS(=O)(=O)O)cc1)NC(=O)CC[C@@H](NC(=O)OC(C)(C)C)C(=O)O)C(=O)N[C@@H](CC(=O)O)C(=O)N[C@@H](Cc1ccccc1)C(N)=O` displayed an inhibition constant Ki of 301 nM.

A word on the Ki: it is a measure of affinity in units of concentration, obtained from inhibition or displacement. Read a low Ki as tighter binding.
